# Test results from US20180319786A1, “INHIBITOR OF THE P2X7 RECEPTOR” (H. Lundbeck A/S, priority 2015, published 2018).
# Key:
# SNI rats = test: SNI model of neuropathic pain (von Frey mechanical allodynia); format: in vivo, rat; conditions: for reversal of mechanical hypersensitivity: SNI rats 3-4 weeks post injury
# Procedure: (§1) Male Sprague Dawley rats (Charles River, Germany) weighing 250-300 g on the day of gabapentin administration were used (n=8-10 per group). The animals were housed in Macrolon III cages (20×14×18 cm or 20×40×18 cm; in groups of 3-5 per cage according to weight) containing wood-chip bedding material (3×1×4 mm) in an air-conditioned building with controlled environmental parameters (relative humidity 55±15%, temperature 20±2° C., and light from 06.00 to 19.00 h). Food and water were available ad libitum. The rats were allowed to habituate to the housing facilities for at least one week prior to being assigned to behavioral experiments whereupon they were randomly distributed across treatment groups. All experiments were performed according to the Ethical Guidelines of the International Association for the Study of Pain and the Danish Committee for Experiments on Animals.
# A spared nerve injury (SNI) was performed in rats (body weight 180-220 g at the time of surgery) as described previously [Decosterd, I. and C. J. Woolf, Pain, 2000. 87(2): p. 149-581. Anaesthesia was induced and maintained by 2% isoflurane (Baxter A/S, Alleroed, Denmark), combined with oxygen (30%) and nitrous oxide (68%). Next, the skin of the lateral left thigh was incised and the cranial and caudal parts of the biceps femoris muscle were separated and held apart by a retractor to expose the sciatic nerve and its three terminal branches: the sural, common peroneal and tibial nerves. The tibial and common peroneal nerves were tightly ligated with 4/0 silk and 2-3 mm of the nerve distal to the ligation was removed. Any stretching or contact with the intact sural nerve was avoided. […] The presence of mechanical allodynia was assessed using a series of calibrated von Frey hairs (lower limit=0.06 and upper limit=13.5 g, Stoelting Co, Wood Dale Ill.), which were applied to the lateral aspect of the plantar surface of the hindpaw with increasing force until an individual filament used just started to bend. […]
# CCI animals = test: Chronic constrictive injury (CCI) model of neuropathic pain (von Frey PWT); format: in vivo, rat; conditions: 100 mg/kg, PWT 120 minutes following administration, p<0.05
# Procedure: Male Sprague Dawley rats (Harlan) were used in the study. Upon receipt, rats were group housed with 2-3 per cage in standard cages. Rats were allowed to acclimate for up to 1 week prior to surgery. All rats were examined and weighed prior to initiation of the study to assure adequate health and suitability. During the course of the study, 12/12 light/dark cycles were maintained. The room temperature was maintained between 20° C. and 23° C. with a relative humidity maintained around 50%. Chow and water were provided ad libitum for the duration of the study. All testing was performed during the animals' light cycle phase. Rats were single housed after surgery.
# This surgery was performed according to Bennett and Xie (1988). […] Each rat was monitored until awake and moving freely around the recovery chamber. […]
# Paw withdrawal from a mechanical stimulus was measured by applying von Frey filaments of ascending bending force to the plantar surface of the hind paws (ipsilateral and contralateral). Baseline and post-treatment withdrawal threshold values for non-noxious mechanical sensitivity were evaluated using von Frey filaments (Semmes-Weinstein filaments, Stoelting, Wood Dale, Ill., USA) of varying stiffness (0.4, 0.7, 1.2, 2.0, 3.6, 5.5, 8.5, 10, 15, 26 g). […]
# Data were analyzed by Analysis of variance (ANOVA), followed by post-hoc comparisons when appropriate. […]
# human P2X7 receptors = molecular target: T1, human P2X7 receptors (Homo sapiens, UniProt Q99572); test: P2X7 FLIPR assay; format: cell-based; conditions: Human P2X7 in HEK293 cells, BzATP 8 μM, Ca2+ mobilization
# T1 construct: expressed in transfected cells; host or cells: HEK293
# T1 sequence (Q99572 1-595): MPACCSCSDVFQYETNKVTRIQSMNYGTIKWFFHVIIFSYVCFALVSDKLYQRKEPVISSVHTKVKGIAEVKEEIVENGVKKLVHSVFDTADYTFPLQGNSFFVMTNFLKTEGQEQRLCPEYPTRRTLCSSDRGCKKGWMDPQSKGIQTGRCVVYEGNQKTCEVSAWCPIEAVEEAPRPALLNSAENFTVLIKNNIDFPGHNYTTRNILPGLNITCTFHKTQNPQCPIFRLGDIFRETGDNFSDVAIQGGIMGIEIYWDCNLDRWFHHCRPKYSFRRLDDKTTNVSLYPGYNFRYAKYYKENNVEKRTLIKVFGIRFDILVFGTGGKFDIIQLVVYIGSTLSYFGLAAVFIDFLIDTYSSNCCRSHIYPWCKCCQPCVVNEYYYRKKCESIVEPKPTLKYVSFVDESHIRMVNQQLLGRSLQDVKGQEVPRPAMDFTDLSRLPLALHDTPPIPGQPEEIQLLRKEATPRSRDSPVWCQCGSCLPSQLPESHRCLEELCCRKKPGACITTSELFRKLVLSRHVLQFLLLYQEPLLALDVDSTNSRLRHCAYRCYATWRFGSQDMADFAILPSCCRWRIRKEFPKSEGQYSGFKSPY
# Procedure: HEK293 cells stably expressing either human, mouse, or rat P2X7 receptors were plated in 384-well poly-D-lysine-coated black FLIPR plates (Greiner One, Cat #781946) using 1.5% FBS media 24 hours before the assay. Sucrose buffer, pH 7.4 was used for the human-P2X7 assay (5 mM of potassium chloride, 9.6 mM NaH2PO4.2H2O, 25 mM Hepes, 0.5 mM CaCl2, 5 mM glucose, 280 mM sucrose and 1.0 mM probenecid (Sigma, St. Louis, Mo.)). Hank's balanced salt solution buffer, pH 7.4 was used for the rat-P2X7 assay (1×HBSS buffer supplemented with 20 mM Hepes plus 2.5 mM probenecid (Sigma, St. Louis, Mo.) and 0.05% bovine serum albumin After removing the media, the plates were loaded with 30 μL of Fluo-4 NW (Molecular Probes, F36206), and were incubated at 37° C. for 30 min in a humidified chamber (5% CO2/95% air), and for 30 min at RT. Mobilization of intracellular Ca^+2 in response to different ligands was measured online using the FLIPR Tetra reader. In the assay, baseline fluorescence was measured for 15 seconds, then 15 μL of 4× compounds (40 μM) was added, fluorescence was monitored for 3 min for agonist activity, 15 μL of 4×BzATP (hP2X7 1×8 μM, rP2X7 1×15 μM) was added and after a 30 min incubation at room temperature the fluorescence was read for 3 min for IC50 determination.
# CFA inflamed rats = test: CFA-induced inflammatory hyperalgesia (paw pressure threshold); format: in vivo, rat
# Procedure: as §1
# Individual rats received a subcutaneous injection of CFA (50% in saline, 100 μl total volume, Sigma Aldrich) into the plantar surface of the hindpaw. All rats were then immediately returned to their homecage. The day prior to this (pre-CFA baseline response), and then again 24 h post CFA injection (post-CFA baseline response), hindpaw paw pressure thresholds were measured to obtain an index of evoked mechanical hyperalgesia [Ref: Munro, G., et al., Neuropharmacology, 2011. 61(1-2): p. 121-132.1. To do this, the investigator gently restrained the rat prior to the application of progressively increasing mechanical pressure to the mid hindpaw region using an electronic version of the Randall-Selitto device (HTC, U.S.A.) The point at which the rat attempted to make a reflex hindpaw withdrawal which in some instances was followed by vocalization was recorded as the paw pressure threshold (g). […] Thereafter, CFA inflamed rats received oral administration of (S)-N-(2-(4-chlorophenyl)-2-morpholinoethyl)-2-(pyrimidin-2-yl)-4-(trifluoromethyl)thiazole-5-carboxamide or vehicle with the investigator blinded to treatment and the paw pressure threshold measured again 60 minutes later.
structure (smiles),measurement,setting,value
"NCC1(CC(=O)O)CCCCC1 [gabapentin, reference compound]",reversal of mechanical hypersensitivity,SNI rats; 100 mg/kg dose,132 % reversal
same,PWT compared to vehicle treatment,CCI animals,significantly increased
"O=C(NCC(c1ccc(Cl)cc1)N1CCOCC1)c1sc(-c2ncccn2)nc1C(F)(F)F (racemic) [Compound (III), (±)-N-(2-(4-chlorophenyl)-2-morpholinoethyl)-2-(pyrimidin-2-yl)-4-(trifluoromethyl)thiazole-5-carboxamide]",IC50,human P2X7 receptors,32 ± 13 nM
"O=C(O)Cc1ccccc1Nc1c(Cl)cccc1Cl [diclofenac, reference compound]",reversal of mechanical hyperalgesia,"CFA inflamed rats; NSAID comparator, dose not given",84 % reversal
"O=C(NC[C@@H](c1ccc(Cl)cc1)N1CCOCC1)c1sc(-c2ncccn2)nc1C(F)(F)F [Compound (II), (R)-N-(2-(4-chlorophenyl)-2-morpholinoethyl)-2-(pyrimidin-2-yl)-4-(trifluoromethyl)thiazole-5-carboxamide]",IC50,human P2X7 receptors,89 ± 13 nM
"O=C(NC[C@H](c1ccc(Cl)cc1)N1CCOCC1)c1sc(-c2ncccn2)nc1C(F)(F)F [Compound (I), (S)-N-(2-(4-chlorophenyl)-2-morpholinoethyl)-2-(pyrimidin-2-yl)-4-(trifluoromethyl)thiazole-5-carboxamide]",IC50,human P2X7 receptors,12 ± 10 nM
same,reversal of mechanical hyperalgesia,"CFA inflamed rats; 30 mg/kg dose, oral, paw pressure threshold 60 minutes later, 24 h post CFA",62 % reversal
same,effect on mechanical hyperalgesia,"CFA inflamed rats; oral, F(4.49)=30.692, P<0.001",significantly reversed
same,reversal of mechanical hypersensitivity,"SNI rats; 30 and 100 mg/kg tested, dose of this value not stated",108 % reversal
same,effect on mechanical hypersensitivity,"SNI rats; 30 and 100 mg/kg, F(3.47)=12.522, P<0.001",dose dependently reversed
same,PWT compared to vehicle treatment,CCI animals,significantly increased
